Here are results for 13 compounds from US20140058103A1, “Inhibitors of PI3K-Delta and Methods of Their Use and Manufacture” (Exelixis, Inc., priority 2010, published 2014).

SMILES strings stand for the structures.

Chain of PI3K delta (O00329 whole entry): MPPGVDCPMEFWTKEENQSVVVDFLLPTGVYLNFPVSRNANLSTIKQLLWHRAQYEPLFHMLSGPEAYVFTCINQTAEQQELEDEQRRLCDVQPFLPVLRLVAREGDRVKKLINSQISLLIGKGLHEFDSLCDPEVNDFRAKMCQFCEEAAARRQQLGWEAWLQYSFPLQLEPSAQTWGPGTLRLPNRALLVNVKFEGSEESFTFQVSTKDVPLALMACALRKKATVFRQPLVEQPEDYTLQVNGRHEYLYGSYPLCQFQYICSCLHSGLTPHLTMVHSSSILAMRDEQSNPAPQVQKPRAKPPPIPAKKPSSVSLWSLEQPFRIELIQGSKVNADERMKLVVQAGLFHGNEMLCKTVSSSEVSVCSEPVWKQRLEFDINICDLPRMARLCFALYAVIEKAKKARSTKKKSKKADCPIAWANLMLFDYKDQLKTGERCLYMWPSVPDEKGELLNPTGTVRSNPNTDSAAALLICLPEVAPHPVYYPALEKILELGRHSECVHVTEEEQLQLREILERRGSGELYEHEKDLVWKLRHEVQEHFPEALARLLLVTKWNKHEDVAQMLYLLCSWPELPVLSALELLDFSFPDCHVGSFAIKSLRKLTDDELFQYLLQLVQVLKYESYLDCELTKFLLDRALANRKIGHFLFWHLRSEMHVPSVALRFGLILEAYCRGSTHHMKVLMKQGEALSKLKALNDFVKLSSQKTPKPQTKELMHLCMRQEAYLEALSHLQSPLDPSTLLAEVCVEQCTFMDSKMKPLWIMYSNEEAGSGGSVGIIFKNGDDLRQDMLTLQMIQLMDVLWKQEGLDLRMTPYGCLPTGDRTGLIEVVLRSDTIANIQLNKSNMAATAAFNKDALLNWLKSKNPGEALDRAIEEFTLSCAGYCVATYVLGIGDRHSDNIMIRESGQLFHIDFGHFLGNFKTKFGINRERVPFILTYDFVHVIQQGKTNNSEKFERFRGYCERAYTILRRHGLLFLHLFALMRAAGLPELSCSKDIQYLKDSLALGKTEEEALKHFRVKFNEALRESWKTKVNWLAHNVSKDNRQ
Chain of PI3K delta (P27986 whole entry partner): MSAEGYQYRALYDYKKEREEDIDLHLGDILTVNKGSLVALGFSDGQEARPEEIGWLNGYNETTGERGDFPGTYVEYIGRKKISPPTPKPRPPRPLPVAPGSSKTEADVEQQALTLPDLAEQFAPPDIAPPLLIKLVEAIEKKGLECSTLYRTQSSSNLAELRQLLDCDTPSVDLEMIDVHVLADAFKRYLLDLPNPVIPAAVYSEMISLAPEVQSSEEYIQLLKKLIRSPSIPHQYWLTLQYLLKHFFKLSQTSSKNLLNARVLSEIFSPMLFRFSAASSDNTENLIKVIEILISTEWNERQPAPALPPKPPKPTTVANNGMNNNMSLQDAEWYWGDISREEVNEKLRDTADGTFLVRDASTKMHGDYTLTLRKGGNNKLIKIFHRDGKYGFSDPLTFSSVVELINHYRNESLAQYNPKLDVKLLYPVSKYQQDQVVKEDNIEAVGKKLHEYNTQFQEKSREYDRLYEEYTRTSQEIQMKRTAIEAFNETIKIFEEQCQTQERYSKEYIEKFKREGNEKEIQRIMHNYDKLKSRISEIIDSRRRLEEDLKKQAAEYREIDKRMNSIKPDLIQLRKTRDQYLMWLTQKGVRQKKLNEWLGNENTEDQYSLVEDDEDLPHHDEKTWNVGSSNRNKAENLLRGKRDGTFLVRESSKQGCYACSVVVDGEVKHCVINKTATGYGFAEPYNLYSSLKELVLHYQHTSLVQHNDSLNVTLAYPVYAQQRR

This assay concerns the target PI3K delta (Homo sapiens, UniProt O00329). Put plainly: Luciferase-coupled chemiluminescence kinase assay (ATP consumption, KinaseGlo). It counts as biochemical. An outline of the steps: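 Compound, kinase and ATP (≤ KM) reacted 2 h at ambient temperature, then remaining ATP quantified with luciferase-luciferin (KinaseGlo) luminescence as percent consumed.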
In turn, `Cn1c(-c2ccco2)nc2c(N3CCC(n4c(=O)[nH]c5ccccc54)CC3)ncnc21` [Compound 116, 1-[1-(8-furan-2-yl-9-methyl-9H-purin-6-yl)piperidin-4-yl]-1,3-dihydro-2H-benzimidazol-2-one] registered an IC50 of 250 to 500 nM. The result for `Cn1c(C(=O)NCC2CC2)nc2c(N3CCC(N4C(=O)Cc5ccccc54)CC3)ncnc21` [Compound 117, N-(cyclopropylmethyl)-9-methyl-6-[4-(2-oxo-2,3-dihydro-1H-indol-1-yl)piperidin-1-yl]-9H-purine-8-carboxamide] reads 50 to 250 nM; that for `Cn1c(C(=O)NCC2CC2)nc2c(N3CCC(n4c(=O)oc5ccccc54)CC3)ncnc21` [Compound 118, N-(cyclopropylmethyl)-9-methyl-6-[4-(2-oxo-1,3-benzoxazol-3(2H)-yl)piperidin-1-yl]-9H-purine-8-carboxamide], 50 to 250 nM. The result for `Cn1c(C(=O)NCC2CC2)nc2c(N3CCC4(CC3)CC(=O)c3ccccc34)ncnc21` [Compound 119, N-(cyclopropylmethyl)-9-methyl-6-(3-oxo-2,3-dihydro-1′H-spiro[indene-1,4′-piperidin]-1′-yl)-9H-purine-8-carboxamide] reads 250 to 500 nM. The result for `Cn1c(C(=O)NCC2CC2)nc2c(N3CCC4(CC3)C(=O)Cc3ccccc34)ncnc21` [Compound 120, N-(cyclopropylmethyl)-9-methyl-6-(2-oxo-2,3-dihydro-1′H-spiro[indene-1,4′-piperidin]-1′-yl)-9H-purine-8-carboxamide] reads 50 to 250 nM. As to `Cn1c(C(=O)NCC2CC2)nc2c(N3CCC(n4ccc5ccccc54)CC3)ncnc21` [Compound 121, N-(cyclopropylmethyl)-6-[4-(1H-indol-1-yl)piperidin-1-yl]-9-methyl-9H-purine-8-carboxamide], the IC50 fell in the range of 500 to 1500 nM. The same measure for `CC(C)c1nnc(-c2nc3c(N4CCC(n5c(=O)[nH]c6ccccc65)CC4)ncnc3n2C)o1` [Compound 122, 1-(1-{9-methyl-8-[5-(1-methylethyl)-1,3,4-oxadiazol-2-yl]-9H-purin-6-yl}piperidin-4-yl)-1,3-dihydro-2H-benzimidazol-2-one]: less than 50 nM; for `CCCc1nnc(-c2nc3c(N4CCC(n5c(=O)[nH]c6ccccc65)CC4)ncnc3n2C)o1` [Compound 123, 1-{1-[9-methyl-8-(5-propyl-1,3,4-oxadiazol-2-yl)-9H-purin-6-yl]piperidin-4-yl}-1,3-dihydro-2H-benzimidazol-2-one]: less than 50 nM; for `Cn1c(-n2ccnc2)nc2c(N3CCC(n4c(=O)[nH]c5ccccc54)CC3)ncnc21` [Compound 124, 1-{1-[8-(1H-Imidazol-1-yl)-9-methyl-9H-purin-6-yl]piperidin-4-yl}-1,3-dihydro-2H-benzimidazol-2-one]: 50 to 250 nM. The result for `Cn1c(-c2nnc(C3CC3)o2)nc2c(N3CCC(n4c(=O)[nH]c5ccccc54)CC3)ncnc21` [Compound 125, 1-{1-[8-(5-cyclopropyl-1,3,4-oxadiazol-2-yl)-9-methyl-9H-purin-6-yl]piperidin-4-yl}-1,3-dihydro-2H-benzimidazol-2-one] reads less than 50 nM; that for `Cn1c(N2CCCC2)nc2c(N3CCC(n4c(=O)[nH]c5ccccc54)CC3)ncnc21` [Compound 126, 1-[1-(9-methyl-8-pyrrolidin-1-yl-9H-purin-6-yl)piperidin-4-yl]-1,3-dihydro-2H-benzimidazol-2-one], 500 to 1500 nM; that for `Cn1c(-n2cccc2)nc2c(N3CCC(n4c(=O)[nH]c5ccccc54)CC3)ncnc21` [Compound 127, 1-{1-[9-methyl-8-(1H-pyrrol-1-yl)-9H-purin-6-yl]piperidin-4-yl}-1,3-dihydro-2H-benzimidazol-2-one], 500 to 1500 nM. The same measure for `Cc1ccoc1-c1nc2c(N3CCC(n4c(=O)[nH]c5ccccc54)CC3)ncnc2n1C` [Compound 128, 1-{1-[9-methyl-8-(3-methylfuran-2-yl)-9H-purin-6-yl]piperidin-4-yl}-1,3-dihydro-2H-benzimidazol-2-one]: 250 to 500 nM.
